Test results published in patent US4164576A, “Benzoxazine carboxamides” (Shell Oil Company, priority 1978, dated 1979).

Tested on: swine adipose tissue
Test: Inhibition of lipogenesis (lipid synthesis from glucose-U-14C) in swine adipose tissue slices
Assay type: cell-based
Settings: Sus scrofa, 100 micrograms per milliliter, 37° C., 2 hours, 5% DMSO, insulin, triplicate, read-out: Percent Inhibition of lipogenesis compared to control
Text: The manner in which they cause this effect is not known with certainty; it is believed that they interfere with the synthesis of fatty acids in the tissues. Their effectiveness for this purpose has been ascertained by immersing samples of swine adipose tissue in a liquid medium containing radioactive glucose and the test chemical for a period of time, then isolating the lipid from the treated tissue and determining the up-take of the radio-active carbon by means of scintillation counting techniques. These tests were conducted in swine adipose tissue because in swine, the primary site of lipogenesis--i.e., fatty acid synthesis--appears to be adipose tissue.
Described in more detail, the tests were conducted according to the following general procedure:
150 milligrams of slices of swine adipose tissue were incubated at 37° C. for 2 hours with shaking in 3 milliliters of Krebs-Rringer bicarbonate solution containing one-half the normal calcium ion concentration, 60 micromoles of glucose, 0.5 micro-Curie of glucose-U^14 C, and 300 microunits of insulin, and 5% dimethyl sulfoxide (DMSO). The test compounds were added as a solution or suspension in DMSO and were present at a concentration of 100 micrograms per milliliter of the incubation mixture.
The incubation was terminated by addition of 0.25 milliliter of 1 N sulfuric acid. The resulting mixture was extracted with a total of 25 milliliters of chloroform: methanol (2:1 v/v). The extracts were washed according to Folch et al. (J. Biol. Chem., 226, 497-509, (1957)), air dried, and counted in a liquid scintillation counter with 15 milliliters of counting fluid (two parts toluene containing 0.4% w/v New England Nuclear Omnifluor: 1 part Triton X-100). The tests were conducted in triplicate and were accompanied by control tests in which all ingredients,proportions and conditions were the same except that no test compound was included. From the data obtained were calculated the percent inhibition of lipid synthesis by the test compounds in each case. The data obtained from the tests are set out in Table 1, as the percent inhibition of lipogenesis compared to the results obtained in the control tests wherein only the test compound was omitted.

Structure (SMILES)	inhibition at 100 µg/mL [%]
C=CCNC(=O)C1CNc2ccccc2O1 (centres unmarked) [Compound 1, 3,4-dihydro-N-(2-propenyl)-2H-1,4-benzoxazine-2-carboxamide]	51
C=CCNC(=O)C1CN(C)c2ccccc2O1 (centres unmarked) [Compound 2, 3,4-dihydro-4-methyl-N-(2-propenyl)-2H-1,4-benzoxazine-2-carboxamide]	40
C=CCNC(=O)C1CNc2cc(Cl)ccc2O1 (centres unmarked) [Compound 3, 6-chloro-3,4-dihydro-N-(2-propenyl)-2H-1,4-benzoxazine-2-carboxamide]	63
C=CCNC(=O)C1CNc2cc(C)ccc2O1 (centres unmarked) [Compound 4, 6-methyl-3,4-dihydro-N-(2-propenyl)-2H-1,4-benzoxazine-2-carboxamide]	57
C=CCNC(=O)C1CNc2cc(NS(C)(=O)=O)ccc2O1 (centres unmarked) [Compound 5, 3,4-dihydro-6-((methylsulfonyl)amino)-N-(2-propenyl)-2H-1,4-benzoxazine-2-carboxamide]	40
C=CCNC(=O)C1CNc2cc(C(F)(F)F)ccc2O1 (centres unmarked) [Compound 6, 6-(trifluoromethyl)-3,4-dihydro-N-(2-propenyl)-2H-1,4-benzoxazine-2-carboxamide]	57
C=CCNC(=O)C1CNc2cc(OC)ccc2O1 (centres unmarked) [Compound 7, 3,4-dihydro-6-methoxy-N-(2-propenyl)-2H-1,4-benzoxazine-2-carboxamide]	76
C=CCNC(=O)C1CNc2cccc(Cl)c2O1 (centres unmarked) [Compound 8, 8-chloro-3,4-dihydro-N-(2-propenyl)-2H-1,4-benzoxazine-2-carboxamide]	24
C=CCNC(=O)C1CNc2cc(Cl)c(Cl)cc2O1 (centres unmarked) [Compound 9, 6,7-dichloro-3,4-dihydro-N-(2-propenyl)-2H-1,4-benzoxazine-2-carboxamide]	44
C=CCNC(=O)C1CNc2ccc(C)cc2O1 (centres unmarked) [Compound 10, 3,4-dihydro-7-methyl-N-(2-propenyl)-2H-1,4-benzoxazine-2-carboxamide]	21
C=CCNC(=O)C1CNc2cc(-c3ccccc3)ccc2O1 (centres unmarked) [Compound 11, 3,4-dihydro-6-phenyl-N-(2-propenyl)-2H-1,4-benzoxazine-2-carboxamide]	70
